Source: PubChem BioAssay (NCI)
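Five compound concentrations were applied to cells in 96-well plates for 48 hours; endpoints were derived by simple linear interpolation of the resulting dose-response curve. GI50 = concentration required for 50% inhibition of growth. TGI is the concentration that stops growth completely.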

Tests used:
Assay in all cases: NCI tumour cell line growth inhibition, 48 h
[1] = test system: BT-549 breast
[2] = test system: HOP-92 NSCLC
[3] = test system: NCI-H226 lung
[4] = test system: NCI-H23 lung
[5] = test system: UACC-257 melanoma
[6] = test system: A549 NSCLC
[7] = test system: ACHN renal
[8] = test system: COLO 205 colon
[9] = test system: EKVX NSCLC
[10] = test system: HCT-15 colon
[11] = test system: HOP-62 NSCLC
[12] = test system: HS 578T breast
[13] = test system: HT29 colon
[14] = test system: IGROV1 ovarian
[15] = test system: LOX IMVI melanoma
[16] = test system: M14 melanoma
[17] = test system: MALME-3M melanoma
[18] = test system: MDA-MB-231 breast
[19] = test system: NCI-H460 lung
[20] = test system: NCI-H522 lung
[21] = test system: NCI/ADR-RES ovarian
[22] = test system: OVCAR-3 ovarian
[23] = test system: OVCAR-4 ovarian
[24] = test system: OVCAR-8 ovarian
[25] = test system: PC-3 prostate
[26] = test system: SF-268 CNS
[27] = test system: SF-295 CNS
[28] = test system: SK-MEL-2 melanoma
[29] = test system: SK-MEL-5 melanoma
[30] = test system: SK-OV-3 ovarian
[31] = test system: SN12C renal
[32] = test system: SNB-75 CNS
[33] = test system: SR leukemia
[34] = test system: SW-620 colon
[35] = test system: T-47D breast
[36] = test system: UACC-62 melanoma
[37] = test system: 786-0 renal
[38] = test system: A498 renal
[39] = test system: CAKI-1 renal
[40] = test system: CCRF-CEM leukemia
[41] = test system: DU-145 prostate
[42] = test system: HCC-2998 colon
[43] = test system: HCT-116 colon
[44] = test system: K-562 leukemia
[45] = test system: KM12 colon
[46] = test system: MCF7 breast
[47] = test system: MDA-MB-435
[48] = test system: MOLT-4 leukemia
[49] = test system: OVCAR-5 ovarian
[50] = test system: RPMI-8226 leukemia
[51] = test system: RXF 393 renal
[52] = test system: SK-MEL-28 melanoma
[53] = test system: SNB-19 CNS
[54] = test system: TK-10 renal
[55] = test system: U251 CNS
[56] = test system: UO-31 renal
[57] = test system: HL-60(TB) leukemia
[58] = test system: SF-539 CNS

CCC1NC(=O)C(NC(=O)c2ncccc2O)C(C)OC(=O)C(c2ccccc2)NC(=O)C2CC(=O)CCN2C(=O)C(Cc2ccccc2)N(C)C(=O)C2CCCN2C1=O (stereo unspecified)
TGI [1]: > 100 µM | TGI [2]: > 100 µM | TGI [3]: > 100 µM | TGI [4]: > 100 µM | TGI [5]: > 100 µM

c1cc2nnc1SCCSCCSCCSc1ccc(nn1)SCCSCCSCCS2
TGI [6]: > 100 µM | TGI [7]: > 100 µM | TGI [8]: > 100 µM | TGI [9]: > 100 µM | TGI [10]: > 100 µM | TGI [11]: > 100 µM | TGI [2]: > 100 µM | TGI [12]: > 100 µM | TGI [13]: > 100 µM | TGI [14]: > 100 µM | TGI [15]: > 100 µM | TGI [16]: > 100 µM | TGI [17]: > 100 µM | TGI [18]: > 100 µM | TGI [19]: > 100 µM | TGI [20]: > 100 µM | TGI [21]: > 100 µM | TGI [22]: > 100 µM | TGI [23]: > 100 µM | TGI [24]: > 100 µM | TGI [25]: > 100 µM | TGI [26]: > 100 µM | TGI [27]: > 100 µM | TGI [28]: > 100 µM | TGI [29]: > 100 µM | TGI [30]: > 100 µM | TGI [31]: > 100 µM | TGI [32]: > 100 µM | TGI [33]: > 100 µM | TGI [34]: > 100 µM | TGI [35]: > 100 µM | TGI [5]: > 100 µM | TGI [36]: > 100 µM

O=C(Nc1cc(Cl)cc(Cl)c1)c1cccc(NC2=C(Cl)C(=O)N(Cc3ccccc3)C2=O)c1
GI50 [37]: 26.8 µM | TGI [37]: > 100 µM | GI50 [38]: 22.2 µM | TGI [38]: 50.7 µM | GI50 [6]: 36.3 µM | TGI [6]: > 100 µM | GI50 [7]: 31.9 µM | TGI [7]: > 100 µM | GI50 [39]: 30.3 µM | TGI [39]: > 100 µM | GI50 [40]: 4.09 µM | TGI [40]: > 100 µM | GI50 [8]: 31.5 µM | TGI [8]: > 100 µM | GI50 [41]: 32.1 µM | TGI [41]: > 100 µM | GI50 [42]: 37.1 µM | TGI [42]: > 100 µM | GI50 [43]: 12 µM | TGI [43]: > 100 µM | GI50 [10]: 24 µM | TGI [10]: > 100 µM | GI50 [11]: 37.4 µM | TGI [11]: > 100 µM | GI50 [2]: 18.9 µM | TGI [2]: 85.7 µM | GI50 [12]: 32.7 µM | TGI [12]: > 100 µM | GI50 [14]: 41.1 µM | TGI [14]: > 100 µM | GI50 [44]: 7.89 µM | TGI [44]: > 100 µM | GI50 [45]: 31.5 µM | TGI [45]: > 100 µM | GI50 [15]: 12.1 µM | TGI [15]: > 100 µM | GI50 [16]: 35.8 µM | TGI [16]: > 100 µM | GI50 [17]: 30.7 µM | TGI [17]: 97.4 µM | GI50 [46]: 21.7 µM | TGI [46]: > 100 µM | GI50 [47]: 21.8 µM | TGI [47]: 88.1 µM | GI50 [48]: 4.15 µM | TGI [48]: > 100 µM | GI50 [3]: 51.4 µM | TGI [3]: > 100 µM | GI50 [4]: 27.8 µM | TGI [4]: > 100 µM | GI50 [19]: 33.2 µM | TGI [19]: > 100 µM | GI50 [20]: 28.5 µM | TGI [20]: > 100 µM | GI50 [21]: 30.3 µM | TGI [21]: > 100 µM | GI50 [22]: 21.8 µM | TGI [22]: > 100 µM | GI50 [23]: 81.3 µM | TGI [23]: > 100 µM | GI50 [49]: > 100 µM | TGI [49]: > 100 µM | GI50 [24]: 41.7 µM | TGI [24]: > 100 µM | GI50 [25]: 19.6 µM | TGI [25]: > 100 µM | GI50 [50]: 2.31 µM | TGI [50]: > 100 µM | GI50 [51]: 18.9 µM | TGI [51]: > 100 µM | GI50 [26]: 42.7 µM | TGI [26]: > 100 µM | GI50 [27]: 34.2 µM | TGI [27]: > 100 µM | GI50 [28]: 65.2 µM | TGI [28]: > 100 µM | GI50 [52]: 54.7 µM | TGI [52]: > 100 µM | GI50 [29]: 16.6 µM | TGI [29]: 34.8 µM | GI50 [30]: 33.6 µM | TGI [30]: > 100 µM | GI50 [31]: 40 µM | TGI [31]: > 100 µM | GI50 [53]: 54 µM | TGI [53]: > 100 µM | GI50 [33]: 6.02 µM | TGI [33]: 80.8 µM | GI50 [35]: 66.5 µM | TGI [35]: > 100 µM | GI50 [54]: 31.8 µM | TGI [54]: > 100 µM | GI50 [55]: 15.6 µM | TGI [55]: > 100 µM | GI50 [36]: 29.2 µM | TGI [36]: > 100 µM | GI50 [56]: 16.9 µM | TGI [56]: > 100 µM

CCN1C(=O)N(CC)C2C1NN=c1s/c(=C3\C(=O)N(C4CCCC4)c4ccccc43)c(=O)n12 (stereo unspecified)
GI50 [37]: 1.71 µM | TGI [37]: 4.86 µM | GI50 [38]: 0.198 µM | TGI [38]: 0.854 µM | GI50 [6]: 1.55 µM | TGI [6]: > 100 µM | GI50 [7]: 1.27 µM | TGI [7]: > 100 µM | GI50 [1]: 2.03 µM | TGI [1]: 7.84 µM | GI50 [39]: 0.519 µM | TGI [39]: > 100 µM | GI50 [40]: 2.02 µM | TGI [40]: 57.5 µM | GI50 [8]: 1.89 µM | TGI [8]: 12.2 µM | GI50 [41]: 2.25 µM | TGI [41]: 6.59 µM | GI50 [9]: 3.36 µM | TGI [9]: > 100 µM | GI50 [42]: 1.65 µM | TGI [42]: 5.19 µM | GI50 [10]: 0.479 µM | TGI [10]: > 100 µM | GI50 [57]: 1.76 µM | TGI [57]: 4.94 µM | GI50 [11]: 1.54 µM | TGI [11]: 14.4 µM | GI50 [2]: 1.21 µM | TGI [2]: 6.4 µM | GI50 [12]: 1.01 µM | TGI [12]: 8.77 µM | GI50 [13]: 0.695 µM | TGI [13]: > 100 µM | GI50 [14]: 0.773 µM | TGI [14]: > 100 µM | GI50 [44]: 0.37 µM | TGI [44]: > 100 µM | GI50 [45]: 0.689 µM | TGI [45]: > 100 µM | GI50 [15]: 1.63 µM | TGI [15]: > 100 µM | GI50 [16]: 0.913 µM | TGI [16]: 6.73 µM | GI50 [17]: 1.26 µM | TGI [17]: 8.74 µM | GI50 [46]: 0.382 µM | TGI [46]: > 100 µM | GI50 [18]: 2.2 µM | TGI [18]: 20.6 µM | GI50 [47]: 0.242 µM | TGI [47]: 0.661 µM | GI50 [48]: 3.42 µM | TGI [48]: > 100 µM | GI50 [3]: 1.47 µM | TGI [3]: 5.54 µM | GI50 [4]: 2.49 µM | TGI [4]: 13.5 µM | GI50 [19]: 0.906 µM | TGI [19]: > 100 µM | GI50 [20]: 0.573 µM | TGI [20]: 5.57 µM | GI50 [22]: 0.516 µM | TGI [22]: 2.09 µM | GI50 [49]: 3.75 µM | TGI [49]: > 100 µM | GI50 [24]: 2.12 µM | TGI [24]: > 100 µM | GI50 [25]: 1.15 µM | TGI [25]: > 100 µM | GI50 [50]: 1.91 µM | TGI [50]: 7.31 µM | GI50 [51]: 0.603 µM | TGI [51]: 3.2 µM | GI50 [26]: 2.38 µM | TGI [26]: 27.6 µM | GI50 [27]: 1.6 µM | TGI [27]: 14.4 µM | GI50 [58]: 0.484 µM | TGI [58]: 2.4 µM | GI50 [28]: 2.76 µM | TGI [28]: 17.6 µM | GI50 [52]: 1.18 µM | TGI [52]: > 100 µM | GI50 [30]: 2.45 µM | TGI [30]: 27.8 µM | GI50 [31]: 2.76 µM | TGI [31]: > 100 µM | GI50 [53]: 3.47 µM | TGI [53]: 40.5 µM | GI50 [33]: 0.392 µM | TGI [33]: > 100 µM | GI50 [34]: 0.551 µM | TGI [34]: > 100 µM | GI50 [54]: 2.78 µM | TGI [54]: 9.89 µM | GI50 [55]: 1.57 µM | TGI [55]: 15.6 µM | GI50 [36]: 0.465 µM | TGI [36]: 36 µM
